Laboratory results from US6579893B1, “Use of troglitazone and related compounds for the treatment of cancer” (Board of Regents, The University of Texas System, priority 1997, dated 2003).

Key:
porcine granulosa cells [1] = assay: Cell viability of porcine granulosa cells (MTS to formazan); type: cell-based; conditions: even at the highest doses, 100 μg ml (FIG. 3)
Description: FIG. 3. Cell viability porcine granulosa cells during treatment with Troglitazone. Porcine granulosa cells were treated with various concentrations of Troglitazone and cell viability determined using a MTS dye oxidation method. This method is based on the ability of dehydrogenase enzymes found in metabolically active cells to oxidize MTS to formazan. This compound is soluble in tissue culture medium.
Therefore, cell viability was tested in these cells using a colorimetric assay that is dependent on the oxidation of MTS to formazan (absorbance measured at 490 nm ) by dehydrogenase enzymes found in metabolically active cells (Promega, Madison WI). This assay was verified in porcine granulosa cells by showing a linear increase in absorption with increasing cell density.

[2] = test system: polycystic ovary syndrome; conditions: women with PCO, 400 mg every day, cited from earlier work
HGL5 cells [3] = assay: Cell viability of HGL5 cells (MTT to formazan); conditions: HGL5, 4 days, MTT (FIG. 9)
Description: Cell viability was assessed by the conversion of MTT to formazan as previously described. Data are the mean ±SEM from 2 studies done in triplicate.
A similar assay was used as described above porcine granulosa cells, using MTT instead of MTS for conversion to formazan.

NWTb3 cells = assay: Cell viability of NWTb3 cells (MTT to formazan); conditions: NWTb3, 4 days, MTT (FIG. 11)
Description: FIG. 11. […] Cells were grown in 24 well-plates with high-glucose MEM 10% FCS. Cell viability was assessed by the conversion of MTT to formazan as previously described. Data are the mean ±SEM from 2 studies done in triplicate.

MCF-7 cells = assay: Cell viability of MCF-7 cells (MTT to formazan); conditions: MCF-7 (non-PPARγ expressing), 4 days, MTT (FIG. 13)
Description: FIG. 13. […] MCF-7 cells were treated with increasing concentrations of Troglitazone for 4 days and cell viability was assessed by the conversion of MTT to formazan as previously described. Data are the mean ±SEM from 2 studies done in triplicate.
A non-PPARγ expressing human breast cancer cell line, MCF-7 was tested.

HGL5 cells [4] = test system: HGL5 cells
Description: Progesterone was corrected for protein concentration. The data represent the mean ±SEM from 2 studies done in triplicate.

porcine granulosa cells [5] = assay: DNA content and total protein of treated porcine granulosa cells; type: cell-based
P450scc = assay: Northern blot of P450scc mRNA in porcine granulosa cells; type: cell-based; conditions: 5 μg ml, 24 h (FIG. 5)
Description: FIG. 5. Scanned image of Northern blot Troglitazone effects on mRNA concentrations of P450scc.
Suppression of transcription of this enzyme would result in decreased progesterone production by granulosa cells.

porcine granulosa cells [6] = assay: Progesterone production by cultured porcine granulosa cells; type: cell-based; conditions: for suppression of progesterone production, dose-response: serum-free medium, varying concentrations, 24 h (FIG. 1)
Description: FlG. 1. Dose-response of progesterone production suppression in porcine granulosa cells treated with Troglitazone and related thiazolidinedione compounds. […] . […] Progesterone concentrations were corrected for DNA content in treated cells and are presented as a percentage of basal corrected progesterone production.
FIG. 2. Time course of Troglitazone suppression of progesterone production by porcine granulosa cells. […] .
FIG. 4. Effects of 25-OH cholesterol on Troglitazone suppression of porcine granulosa cell progesterone production. […] .
Initial studies investigated the dose-response of Troglitazone and related compounds on progesterone production in cultures of porcine granulosa cells. Porcine granulosa cells were isolated from 1- to 5-mm follicles of ovaries from immature swine (60-70 kg) obtained from a local slaughterhouse (Urban et al. 1994). The cells were plated in Eagle's minimum essential medium and 3% fetal calf serum (FCS) at a concentration of 20-30 million cells 60-mm dish for 12-16 h to facilitate granulosa cell attachment to the plates. Monolayer cultures were maintained at 37° C. in 5% CO2 throughout the study. After granulosa cell attachment, medium containing the FCS was discarded and serum-free medium with varying concentrations of Troglitazone, pioglitazone and BRL 49653 was added for 24 h. One ml of medium was collected for measurement of progesterone by an assay previously described that uses the chromatographic separation of steroids to enhance specificity (Urban et al. 1994). […] . The time course for the suppression of progesterone was done in the same porcine granulosa cell culture system. […] . The suppression of progesterone production in porcine granulosa cells by Troglitazone could be due to effects of the drug on the supply of cholesterol to the mitochondria. Before investigating proteins in the pathway of cholesterol transport to the mitochondria, it was first tested whether Troglitazone would inhibit progesterone production when cells were co-treated with 25-OH cholesterol. This compound diffuses directly to the P-450 cholesterol side-chain cleavage enzyme (P-450scc) in the mitochondria and acts as a substrate for progesterone production (Veldhuis and Furlanetto, 1985). […] .

PPARγ [7] = assay: EMSA of porcine granulosa cell nuclear extract with consensus PPRE (DR-1) oligonucleotide; type: cell-based; conditions: 15 μg nuclear extract protein, EMSA (FIG. 6)
Description: The nuclear extract was mixed with radioactively-labeled consensus PPRE as described in FIG. 6.

PPARγ [8] = conditions: cited from earlier work
PPARα = target: T1, PPARα (Homo sapiens, UniProt Q07869); conditions: cited from earlier work
T1 sequence (Q07869 1-468): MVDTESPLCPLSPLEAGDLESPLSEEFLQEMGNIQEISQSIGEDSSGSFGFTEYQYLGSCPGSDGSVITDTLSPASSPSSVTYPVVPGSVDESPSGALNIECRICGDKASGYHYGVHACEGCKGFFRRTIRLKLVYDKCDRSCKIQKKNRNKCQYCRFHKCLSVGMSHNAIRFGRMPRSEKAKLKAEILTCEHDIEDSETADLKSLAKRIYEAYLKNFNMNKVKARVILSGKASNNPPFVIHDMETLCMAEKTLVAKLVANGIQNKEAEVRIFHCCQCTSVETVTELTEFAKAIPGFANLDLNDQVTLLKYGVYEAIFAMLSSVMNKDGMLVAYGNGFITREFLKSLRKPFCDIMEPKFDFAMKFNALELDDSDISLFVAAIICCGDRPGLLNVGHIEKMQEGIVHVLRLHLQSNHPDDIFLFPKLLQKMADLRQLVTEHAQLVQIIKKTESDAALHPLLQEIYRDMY

Cc1c(C)c2c(c(C)c1O)CCC(C)(COc1ccc(CC3SC(=O)NC3=O)cc1)O2 (single isomer, unassigned; (+)) [Troglitazone, (+)-5[[4-[(3,4-dihydro-6-hydroxy-2,5,7,8-tetramethyl-2H-1-benzopyran-2-yl)methoxy]phenyl]methyl]-2,4thiazolidinedione]
cell viability (porcine granulosa cells [1]): not a decrease in cell viability
women with ovulatory menses ([2]; 25 women studied): 2 of the 25
insulin resistance [2]: reduced
concentrations causing a loss of cell viability (HGL5 cells [3]): ≥ 0.5 µg·mL
concentrations causing a loss of cell viability (NWTb3 cells): ≥ 1.0 µg/mL
cell viability (MCF-7 cells): decreased only with high concentrations
progesterone production at single concentration (HGL5 cells [4]; 30 μg ml): inhibited progesterone production
biphasic response at lower concentrations (HGL5 cells [4]; HGL5, 48 h (FIG. 8)): lower concentrations actually increasing progesterone production
concentrations at which progesterone production was suppressed (HGL5 cells [4]; HGL5, 48 h (FIG. 8)): greater than 10 μg
total protein concentrations versus control (porcine granulosa cells [5]; Troglitazone treatment groups vs control): lower
DNA content versus control (porcine granulosa cells [5]; Troglitazone-treated vs control cells): not a significant decrease in DNA content
mRNA concentrations of P450scc (P450scc): did not suppress mRNA concentrations of P450scc
suppression of progesterone at single concentration (porcine granulosa cells [6]; 5 μg ml, 24 h (FIG. 7B)): suppression of progesterone in these cells occurred
time at which progesterone production was suppressed (porcine granulosa cells [6]; 1 or 10 μg ml, up to 24 h (FIG. 2)): ≥ 4 h
effect of concentration on time of onset of suppression (porcine granulosa cells [6]; 1 vs 10 μg ml (FIG. 2)): did not affect the time of onset of suppression
potency at suppressing progesterone production relative to the other thiazolidinediones (porcine granulosa cells [6]; 24 h dose-response (FIG. 1)): more potent at suppressing progesterone production than 2 other drugs
progesterone production in the presence of 25-OH cholesterol (porcine granulosa cells [6]; co-treatment with 25-OH cholesterol 30 μg ml, Troglitazone 1 and 10 μg ml, 24 h (FIG. 4)): suppressed progesterone production
suppression of progesterone production, dose-response (porcine granulosa cells [6]): suppressed progesterone production by porcine granulosa cells in a dose-dependent fashion

CCc1ccc(CCOc2ccc(CC3SC(=O)NC3=O)cc2)nc1 (centres unmarked) [pioglitazone, 5-[4-[2-(5-ethylpyridin-2-yl)ethoxyl]benzyl]thiazolidine-2,4-dione]
suppression of progesterone production, dose-response (porcine granulosa cells [6]): suppressed progesterone production by porcine granulosa cells in a dose-dependent fashion

CN(CCOc1ccc(CC2SC(=O)NC2=O)cc1)c1ccccn1 (centres unmarked) [BRL 49653, 5-[4-[2-(N-methyl-N-(2-pyridyl)amino]ethoxy]benzyl]thiazolidine-2,4-dione]
binding to the PPRE in granulosa cell nuclear extracts (PPARγ [7]): increased binding to the PPRE
suppression of progesterone production, dose-response (porcine granulosa cells [6]): suppressed progesterone production by porcine granulosa cells in a dose-dependent fashion

CCCCC/C=C/C=C1/C(=O)C=C[C@@H]1C/C=C\CCCC(=O)O [15d-PGJ2, 15-deoxy-delta^12, 14-prostaglandin J2]
PPARγ-dependent adipogenesis (PPARγ [8]): activates PPARγ-dependent adipogenesis
PPARα activation (PPARα): activated PPARα only at high concentrations
